Data from publication PMC8881469, “Molecular recognition of formylpeptides and diverse agonists by the formylpeptide receptors FPR1 and FPR2” (Nature Communications, 2022).
Read-outs that look alike come from different tables or passages of the source.

Key:
[1] = multiple studies; cited from earlier work
[2] = tested on: FPR2; conditions: at various concentrations; cited from earlier work
Excerpt: This may be due to the coupling of Gi, which stabilizes the receptor in one active conformation. Thus, it is difficult to speculate on the specific conformational states of FPR2 associated with pro-inflammatory and pro-resolving agonists.

[3] = tested on: FPR1 versus FPR2; conditions: cited from earlier work
[4] = tested on: FPR1; conditions: cited from earlier work
[5] = tested on: FPR2; conditions: cited from earlier work
[6] = tested on: FPR1 D106A; assay: cAMP accumulation assay, HEK293 cells, Epac-based FRET biosensor H187, 1 µM forskolin; type: cell-based, human; conditions: FPR1 D106A vs wild type
Experimental: (§1) An Epac-based FRET cAMP biosensor H187 was used to measure cellular cAMP levels. The plasmid encoding H187 was transfected into HEK293 cells to make stable cells reporting intracellular cAMP levels. In brief, the H187 stable cells were seeded in poly-D-lysine treated 96-well black clear-bottom plate at 30,000 cells per well. 24 h later, cells were transiently transfected with DNA encoding the N-terminal FLAG-tagged wild-type FPR1, FPR2 or mutants at an amount of 0.1 µg DNA per well. Assays were performed 24 h after transfection. Cells were washed twice with HBSS buffer and incubated at room temperature for 30 min before the addition of forskolin to a final concentration of 1 µM. The intracellular cAMP level was measured using a multimode reader (Spark 20 M, TECAN) measuring the fluorescence emission intensity at 485 nm and 535 nm upon the excitation at 430 nm. 15 min after forskolin incubation, cells were stimulated with agonists at different concentrations and measured for additional 20 min. The FRET signal was calculated as the normalized FRET ratio of fluorescence emission at 535 nm (F535) divided by emission at 485 nm (F485). The EC50 was determined with the FRET ratio at the timepoint of 1600 s. The data analysis was performed using the nonlinear regression fit logIC50 mode in GraphPad Prism.

[7] = tested on: FPR1 F102H; assay: as above; type: cell-based, human; conditions: FPR1 F102H vs wild type
Experimental: as §1

[8] = tested on: FPR1 R201A; assay: as above; type: cell-based, human; conditions: FPR1 R201A vs wild type
Experimental: as §1

[9] = tested on: FPR1 R205A; assay: as above; type: cell-based, human; conditions: FPR1 R205A vs wild type
Experimental: as §1

[10] = tested on: FPR1 R84D; assay: as above; type: cell-based, human; conditions: FPR1 R84D vs wild type
Experimental: as §1

[11] = tested on: FPR1 Y257F; assay: as above; type: cell-based, human; conditions: FPR1 Y257F vs wild type
Experimental: as §1

[12] = tested on: FPR1; conditions: short formylpeptides; cited from earlier work
Excerpt: The human formylpeptide receptor (FPR) family comprises of three members, FPR1, FPR2 (also named FPRL1), and FPR3[1]. They were initially discovered and characterized as pattern recognition G protein-coupled receptors (GPCRs) to recognize peptides with N-terminal formyl methionine, which are derived from invading pathogens or host mitochondria as pathogen- or damage-associated molecular patterns (PAMPs and DAMPs)[1]–[5]. FPR1 and FPR2 share a high sequence similarity, yet they display different preferences of formylpeptides. FPR1 is a high-affinity receptor for many short formylpeptides suc ...

[13] = tested on: FPR2 R201A; conditions: cited from earlier work
Excerpt: (§2) To investigate critical structural determinants for the binding of CGEN-885A, we measured the CGEN-885A-induced signaling of FPR2 with mutations of residues in the CGEN-885A-binding pocket. […] Considering the negatively charged environment of the ligand-b ...

[14] = tested on: FPR2 R205A; conditions: cited from earlier work
Excerpt: as §2

[15] = tested on: FPR2 F110A; assay: cAMP accumulation assay, HEK293 cells, Epac-based FRET biosensor H187, 1 µM forskolin; type: cell-based, human
Experimental: as §1

[16] = tested on: FPR2 R201A; assay: as above; type: cell-based, human
Experimental: as §1

[17] = tested on: FPR2 R205A; assay: as above; type: cell-based, human
Experimental: as §1

[18] = tested on: FPR2; conditions: relative to C43; cited from earlier work
Excerpt: Similar to peptide agonists, C43 causes conformational changes of residues in the activation chamber including V113^3.40 and W254^6.48 through direct interactions to activate the receptor.

## COc1cc(F)c([C@@H]2CNC(=O)[C@H]2NC(=O)Nc2ccccc2)c(F)c1 [BMS-986235]
[1]
  pro-resolving and cardiac protective effects: pro-resolving and cardiac protective effects

## CCCCC[C@@H](O)/C=C/C=C\C=C\C=C\[C@@H](O)[C@@H](O)CCCC(=O)O [ATL, aspirin-triggered 15-epi-lipoxin A4]
[2]
  FPR2 signaling responses: unusual biphasic signaling responses

## COc1cccc(Cc2cc(C)nn(C(C)C(=O)Nc3ccc(Br)cc3)c2=O)c1 (centres unmarked) [Compound 17b]
[1]
  pro-resolving and cardiac protective effects: pro-resolving and cardiac protective effects

## fMLFII [formylpeptide agonist for both FPR1 and FPR2]
[3]; FPR1 relative to FPR2
  fold higher potency in activating FPR1 than FPR2: ~ 100 fold
[3]; FPR1 vs FPR2
  affinity for FPR1 relative to FPR2: higher affinity
[4]; formylpeptide agonist
  agonist activity on FPR1: potent
[5]; formylpeptide agonist
  agonist activity on FPR2: potent

## N-formyl-Met-Leu-Phe [fMLF, prototypical formylpeptide]
[6]
  agonistic potency, effect of mutation D106A: compromised agonistic potency
[7]
  potency in activating FPR1, effect of mutation of F102 to FPR2 counterpart: reduced potency
[8]
  agonistic potency, effect of mutation R201A: compromised agonistic potency
[9]
  agonistic potency, effect of mutation R205A: compromised agonistic potency
[10]
  potency in activating FPR1, effect of mutation R84D: reduces the potency
[11]
  potency in activating FPR1, effect of mutation of Y257 to FPR2 counterpart: reduced potency
[3]; FPR2 relative to FPR1
  fold less potent (in terms of EC50) in inducing FPR2 signaling than FPR1: about 1000 fold
[12]
  FPR1 affinity: high-affinity

## WKYMVm
[13]
  agonistic activity, effect of mutation R201A: much compromised agonistic activities
[14]
  agonistic activity, effect of mutation R205A: much compromised agonistic activities

## CC(C)c1c(NC(=O)Nc2ccc(Cl)cc2)c(=O)n(-c2ccccc2)n1C [C43]
[15]
  agonistic action, effect of mutation F110A: nearly undetectable agonistic action
[16]
  agonistic action, effect of mutation R201A: nearly undetectable agonistic action
[17]
  agonistic action, effect of mutation R205A: nearly undetectable agonistic action
[18]
  ligand potency on alternating the para-position of the chloride group: significant loss of ligand potency
[4]; small-molecule agonist
  agonist activity on FPR1: potent
[5]; small-molecule agonist
  agonist activity on FPR2: potent
